Legend:
[1] = mn = molality of the nth substance listed, in mol/kg; conditions: 298.15 K, Ring tensiometer
[2] = cn = amount concentration of the nth substance listed, in mol/dm3; conditions: 298.15 K, Ring tensiometer

CCCCCCCCCCCC[N+](C)(C)[O-] [Dodecyldimethylamine oxide] + O
[1]
Conditions | surface tension liquid-gas [mN/m]
m1 = 0.00025 | 43.18
m1 = 0.0005 | 39.98
m1 = 0.00074 | 39.2
m1 = 0.00099 | 36.87
m1 = 0.00123 | 35.11
m1 = 0.00148 | 33.73
m1 = 0.00172 | 33.19
m1 = 0.00196 | 33.32
m1 = 0.00244 | 34.06
m1 = 0.00291 | 34.05
m1 = 0.00338 | 34.22
m1 = 0.00385 | 34.14
m1 = 0.00431 | 34.17

CCCCCCCCCC[N+](C)(C)C.[Br-] [N,N,N-trimethyl-1-decanaminium bromide] + O
[2]
Conditions | surface tension liquid-gas [mN/m]
c1 = 0.0118 | 54.43
c1 = 0.0211 | 48.37
c1 = 0.0286 | 45.75
c1 = 0.0348 | 42.87
c1 = 0.04 | 40.18
c1 = 0.0444 | 37.98
c1 = 0.0464 | 37.19
c1 = 0.0483 | 36.21
c1 = 0.05 | 36.15
c1 = 0.0516 | 36.47
c1 = 0.0531 | 35.98
c1 = 0.0545 | 35.88
c1 = 0.0559 | 36.19
c1 = 0.0571 | 36.31

CCCCCCCCCCCC[N+](C)(C)C.[Br-] [dodecyltrimethylammonium bromide] + O
[1]
Conditions | surface tension liquid-gas [mN/m]
m1 = 0.0005 | 55.13
m1 = 0.00099 | 55.56
m1 = 0.00148 | 53.67
m1 = 0.00196 | 53.93
m1 = 0.00244 | 53.53
m1 = 0.00291 | 52.63
m1 = 0.00338 | 52.13
m1 = 0.00476 | 49.16
m1 = 0.00654 | 45.2
m1 = 0.00826 | 42.32
m1 = 0.00991 | 39.41
m1 = 0.0115 | 36.77
m1 = 0.013 | 34.09
m1 = 0.0138 | 34.98
m1 = 0.0145 | 37.44
m1 = 0.0153 | 37.98
m1 = 0.016 | 38.33
m1 = 0.0167 | 38.47
m1 = 0.0177 | 38.69
m1 = 0.0184 | 38.46

CCCCCCCCCCCCCC[N+](C)(C)C.[Br-] [tetradecyltrimethylammonium bromide] + O
[1]
Conditions | surface tension liquid-gas [mN/m]
m1 = 0.0005 | 53.96
m1 = 0.00099 | 52.31
m1 = 0.00148 | 46.35
m1 = 0.00196 | 41.65
m1 = 0.00244 | 39
m1 = 0.00291 | 36.35
m1 = 0.00338 | 34.05
m1 = 0.00385 | 33.87
m1 = 0.00431 | 35.02
m1 = 0.00476 | 36.24
m1 = 0.00521 | 35.86
m1 = 0.00566 | 36.33
m1 = 0.0061 | 36.74
m1 = 0.00654 | 36.6
m1 = 0.00698 | 36.81
